Laboratory results reported in US7595330B2, “Benzimidazole thiophene compounds” (SmithKline Beecham Corporation, priority 2005, dated 2009).

Key:
MX-1 = test: Cell-Titer-Glo inhibition of cell proliferation, MX-1; type: cell-based; settings: Homo sapiens, MX1, CellTiter-Glo, 72 h
Procedure: (§1) V. Cell-Titer-Glo—Inhibition of Cell Proliferation by PLK1 Inhibitors
(§2) Exponentially growing cell lines of different tumor origins, cultured in appropriate media containing 10% fetal bovine serum at 37° C. in a 5% CO2 incubator were plated at low density (less than 2000 cells/well) in 96-well plates. Twenty four hours post-plating, cells were treated with different concentrations of test compounds ranging from 10 uM to 0.04 nM. Several wells were left untreated as a control. Seventy two hours post-treatment, cell numbers were determined using 50-100 ul per well of CellTiter-Glo (Promega #G7573). Plates were incubated at room temperature for 15 minutes and the chemiluminescent signal was read on the Victor V or Envison 2100 reader.
(§3) The Cell-Titer Glo data are shown in Table 2 below and represent a compilation of several different experiments, each performed using the general parameters outlined above, although minor variations may have been employed in some instances.

human plasma proteins = test: Protein binding to human plasma proteins using equilibrium dialysis; type: in vitro ADME; settings: pH 7.4, equilibrium dialysis 6 h, 37° C.
Procedure: III. Determination of Protein Binding to Human Plasma Proteins Using Equilibrium Dialysis
96 Well Plate (High Throughput Dialysis): Stock solutions of compounds were spiked into human plasma at a target concentration of 2000 ng/mL. The mixture was inverted gently several times to insure homogeneity and triplicate 50 μL aliquots were collected to verify initial concentrations. Following assembly of dialysis plate (HTDialysis membrane strips, molecular weight cut off limit of 12,000-14,000 daltons), spiked plasma (150 μL) was placed in the donor compartment of the well and Phosphate Buffered Saline pH 7.4 (150 μL) in the receiver compartment. Eight wells were set up per compound and plasma type. Plate was placed in a 37° C. incubator on a plate shaker. Following the 6 h incubation period, the plate was removed. Single 50 μL aliquots from each donor and receiver compartment (per well) were analyzed. Sample analysis was by LC/MS/MS (results reported as Drug Peak Area/Internal Standard Peak Area ratios). Protein binding assay can also be performed using dialysis cells instead of HT Dialysis 96 well plates. In Table 1, % Protein Binding, +=>98%; ++=95-98%: +++=<95%.

MDA-MB-468 = test: Cell-Titer-Glo inhibition of cell proliferation, MDA-MB-468; type: cell-based; settings: Homo sapiens, CellTiter-Glo, 72 h
Procedure: as §1, §2, §3

HCT116 = test: Methylene blue growth inhibition assay, HCT116; type: cell-based; settings: Homo sapiens, HCT-116; methylene blue, 72 h, HCT116; read-out: HCT116 IC50
Procedure: (§4) II. Methylene Blue Growth Inhibition Assay—Inhibition of Cell Proliferation by PLK1 Inhibitors
(§5) Generally, exponentially growing cell lines of different tumor origins, cultured in appropriate media containing 10% fetal bovine serum at 37° C. in a 5% CO2 incubator were plated at low density (less than 2000 cells/well) in 96-well plates. […]. Seventy two hours post-treatment, cell numbers were determined using 100 μl per well of methylene blue (Sigma M9140) (0.5% in 50:50 Ethanol:water). Stain was incubated at room temperature for 30 minutes before plates were rinsed and dye solubilized in 1% N-lauroyl sarcosine, sodium salt, (Sigma L5125, in PBS) (further details of a methylene blue assay are described below). Plates were read on a microplate reader, measuring the OD at 620 nm.
(§6) . The data are shown in Table 1 below and represent a compilation of several different experiments, each performed using the general parameters outlined above, although minor variations may have been employed in some instances.
(§7) In one assay, normal human foreskin fibroblasts (HFF), human colon (HCT116, RKO), lung (H460, A549) and breast (MCF7) tumor cell lines were cultured in high glucose DMEM (Life Technologies) containing 10% fetal bovine serum (FBS) at 37° C. in a humidified 5% CO2, 95% air incubator. Cells were harvested using trypsin/EDTA, counted using a haemocytometer, and plated in 100 μL of culture media per well, at the following densities, in a 96-well tissue culture plate (Falcon 3075): HFF 5,000 cells/well, HCT116 3,000 cells/well, RKO 2,500 cells/well, H460 2,500 cells/well, A549 5,000 cells/well, MCF7 4,000 cells/well. The next day, compounds were diluted in low glucose DMEM containing 100 μg/mL gentamicin, at twice the final required concentration, from 10 mM stock solutions in DMSO. 100 μL/well of these dilutions were added to the 100 μL of media currently in the assay plates. Medium containing 0.6% DMSO was added to control wells. The final concentration of DMSO in all wells was 0.3%. Cells were incubated at 37° C., 5% CO2 for 72 h. Medium was removed by aspiration. Cell biomass was estimated by staining cells with 80 μL per well methylene blue (Sigma M9140, 0.5% in 50:50 ethanol:water), and incubation at room temperature for 30-60 min. Stain was removed by aspiration and the plates rinsed by immersion in water, then air-dried. To release stain from the cells, 100 μL of solubilization solution was added (1% N-lauroyl sarcosine, Sodium salt, Sigma L5125, in PBS), and plates were shaken gently for about 30 min. Optical density at 620 nm was measured on a microplate reader. Percent inhibition of cell growth was calculated relative to vehicle treated control wells. […].

MiaPaca = test: Cell-Titer-Glo inhibition of cell proliferation, MiaPaca; type: cell-based; settings: Homo sapiens, MIA PaCa-2, CellTiter-Glo, 72 h
Procedure: as §1, §2, §3

LNCaP = test: Cell-Titer-Glo inhibition of cell proliferation, LNCaP; type: cell-based; settings: Homo sapiens, CellTiter-Glo, 72 h
Procedure: as §1, §2, §3

SKOV-3 = test: Cell-Titer-Glo inhibition of cell proliferation, SKOV-3; type: cell-based; settings: Homo sapiens, SK-OV-3, CellTiter-Glo, 72 h
Procedure: as §1, §2, §3

PANC-1 = test: Cell-Titer-Glo inhibition of cell proliferation, PANC-1; type: cell-based; settings: Homo sapiens, CellTiter-Glo, 72 h
Procedure: as §1, §2, §3

A549 = test: Methylene blue growth inhibition assay, A549; type: cell-based; settings: Homo sapiens; methylene blue, 72 h, A549; read-out: A549 IC50
Procedure: as §4, §5, §6, §7

P388 = test: Cell-Titer-Glo inhibition of cell proliferation, P388; type: cell-based; settings: Mus musculus, CellTiter-Glo, 72 h
Procedure: as §1, §2, §3

[1] = test system: normal human foreskin fibroblasts (HFF); test: Methylene blue growth inhibition assay, HFF; type: cell-based; settings: Fibroblast, methylene blue, 72 h, HFF normal fibroblasts, read-out: HFF IC50
Procedure: as §4, §5, §6, §7

COLO205 = test: Cell-Titer-Glo inhibition of cell proliferation, COLO205; type: cell-based; settings: Homo sapiens, COLO 205, CellTiter-Glo, 72 h
Procedure: as §1, §2, §3

HN5 = test: Cell-Titer-Glo inhibition of cell proliferation, HN5; type: cell-based; settings: Homo sapiens, CellTiter-Glo, 72 h
Procedure: as §1, §2, §3

ASPC3 = test: Cell-Titer-Glo inhibition of cell proliferation, ASPC3; type: cell-based; settings: CellTiter-Glo, 72 h
Procedure: as §1, §2, §3

BXPC3 = test: Cell-Titer-Glo inhibition of cell proliferation, BXPC3; type: cell-based; settings: Homo sapiens, BXPC-3, CellTiter-Glo, 72 h
Procedure: as §1, §2, §3

H1299 = test: Cell-Titer-Glo inhibition of cell proliferation, H1299; type: cell-based; settings: Homo sapiens, NCI-H1299, CellTiter-Glo, 72 h
Procedure: as §1, §2, §3

fraction unbound at 6 h, 2000 ng/mL (human plasma proteins): > 0.05
IC50 (MDA-MB-468): < 500 nM
IC50 (HCT116): < 100 nM
IC50 (MiaPaca): < 500 nM
IC50 (LNCaP): < 500 nM
IC50 (SKOV-3): < 500 nM
IC50 (PANC-1): < 500 nM
IC50 (A549): < 100 nM
IC50 (P388): < 500 nM
IC50 (COLO205): < 500 nM
IC50 (ASPC3): < 500 nM
IC50 (BXPC3): < 500 nM
IC50 (H1299): < 500 nM
Structure (SMILES): C[C@@H](Oc1cc(-n2cnc3ccc(CN4CCN(C)CC4)cc32)sc1C(N)=O)c1ccccc1C(F)(F)F [Example 3, 5-{6-[(4-Methylpipiperazin-1-yl)methyl]-1H-benzimidazol-1-yl}-3-{(1R)-1-[2-(trifluoromethyl)phenyl]ethoxy}thiophene-2-carboxamide]
IC50 (MX-1): < 500 nM
IC50 [1]: < 100 nM
IC50 (HN5): < 500 nM
